Ki data for 24 compounds are collected here from BindingDB's records for doi:10.1038/nchembio.662 (University of California San Francisco, 2011).

The target in one assay is D(3) dopamine receptor (Homo sapiens, UniProt P35462). The assay is described as follows: Binding Assay. The note with it: pH 7.4; 22 °C. The protocol: (§1) Affinities for D3-dopaminergic, D2-dopaminergic and beta2-adrenergic receptors were determined by radioligand competition binding at the National Institute of Mental Health Psychoactive Drug Screening Program.
Sequence of D(3) dopamine receptor (P35462 as listed by the source): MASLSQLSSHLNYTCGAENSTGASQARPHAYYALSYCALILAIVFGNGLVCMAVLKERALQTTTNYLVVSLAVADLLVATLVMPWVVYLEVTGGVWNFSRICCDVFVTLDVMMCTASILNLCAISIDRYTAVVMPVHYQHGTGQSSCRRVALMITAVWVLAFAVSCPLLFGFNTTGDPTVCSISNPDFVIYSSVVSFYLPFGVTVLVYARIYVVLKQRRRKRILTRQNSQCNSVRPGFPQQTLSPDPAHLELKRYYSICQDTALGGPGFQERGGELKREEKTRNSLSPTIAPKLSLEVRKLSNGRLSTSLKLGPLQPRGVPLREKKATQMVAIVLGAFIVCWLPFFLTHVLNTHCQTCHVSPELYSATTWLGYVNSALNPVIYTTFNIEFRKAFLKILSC
Another assay has as its target D(2) dopamine receptor (Homo sapiens, UniProt P14416). The assay is described as follows: Binding Assay. As to conditions: pH 7.4; 22 °C. The protocol:
as §1

What is called Ki is the equilibrium dissociation constant of an inhibitor or competing ligand from its target. Higher therefore signals weaker binding.

The structures appear in SMILES notation. Some results are limits rather than exact numbers.

Sequence of D(2) dopamine receptor (P14416 whole entry): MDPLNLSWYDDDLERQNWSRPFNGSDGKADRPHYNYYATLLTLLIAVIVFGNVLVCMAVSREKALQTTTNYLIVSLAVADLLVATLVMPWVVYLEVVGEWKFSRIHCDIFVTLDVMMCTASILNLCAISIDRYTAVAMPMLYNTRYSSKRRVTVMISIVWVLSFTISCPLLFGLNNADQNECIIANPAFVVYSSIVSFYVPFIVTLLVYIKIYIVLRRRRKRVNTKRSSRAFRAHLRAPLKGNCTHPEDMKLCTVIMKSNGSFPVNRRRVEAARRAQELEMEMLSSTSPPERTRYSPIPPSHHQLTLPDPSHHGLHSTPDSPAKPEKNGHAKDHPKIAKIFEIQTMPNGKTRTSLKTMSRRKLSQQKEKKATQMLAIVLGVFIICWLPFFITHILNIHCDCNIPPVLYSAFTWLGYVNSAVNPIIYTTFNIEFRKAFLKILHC

On D(3) dopamine receptor, `CNCc1ccc(-c2cc(Cl)cc(Cl)c2)o1` [Azanium analog, 55] displayed a Ki of 0.2 µM.

`O=c1oc2c(CN3CCCC3)c(O)ccc2c2c1CCC2` [ZINC 118327, 8]: on D(3) dopamine receptor, the Ki was more than 10 µM.

On D(3) dopamine receptor, `CC(C)(CO)NCc1ccc(-c2ccccc2)o1` [ZINC 529108, 67] yielded an inhibitory constant (Ki) of 9.58 µM.

`C[C@H](O)CNCc1ccc(-c2cccc(Cl)c2)o1` [ZINC 4842613, 71]: the affinity on D(3) dopamine receptor, expressed as Ki, was 0.488 µM.

In the case of `Clc1ccc(Cl)c(-c2ccc(CNC3CC3)o2)c1` [ZINC 4868730, 70], the Ki on D(3) dopamine receptor is 2.71 µM; on D(2) dopamine receptor it was 6.61 µM.

In the case of `CC(C)(C)NCc1ccc(-c2ccccc2)o1` [ZINC 4942833, 65], the results for the Ki on D(3) dopamine receptor and on D(2) dopamine receptor were 8.67 µM and 2.9 µM, respectively.

`CC(C)(CO)NCc1ccc(-c2ccc(F)c(Cl)c2)o1` [ZINC 4942963, 64]: on D(3) dopamine receptor, the affinity corresponds to a Ki of 6.81 µM. This lies in the single-digit micromolar range.

Regarding `Cc1ccc(-c2ccc(CNC(C)(C)CO)o2)cc1Cl` [ZINC 4999756, 68], the Ki at D(3) dopamine receptor was determined as 2.74 µM.

For `CC(C)(C)NCc1ccc(-c2ccccc2Cl)o1` [ZINC 6743145, 66], the Ki at D(3) dopamine receptor worked out at 5.46 µM.

The compound `CC[C@@H](CO)NCc1ccc(-c2cccc(Cl)c2C)o1` [ZINC 7538899, 72] registered a Ki at D(3) dopamine receptor of 0.817 µM.

For `CC(C)NCc1ccc(-c2ccccc2)o1` [ZINC 10436232, 69], the Ki on D(3) dopamine receptor was found to be 8.89 µM. This Ki lies about 11-fold higher than the previous one.

Turning to `CCSc1nnc2n1CCCN2C(=O)CN1CCOCC1` [ZINC 17173082, 12], the Ki on D(3) dopamine receptor worked out at 9.83 µM; at D(2) dopamine receptor, 6.35 µM.

At D(3) dopamine receptor, `O[C@@H](CN1CCC(Oc2cccc(F)c2)CC1)c1cccs1` [ZINC 19294224, 9] showed a Ki of 9.46 µM.

As to `CN(Cc1nc2ccccc2s1)C[C@H](O)Cc1ccccc1` [ZINC 27406499, 25], the inhibition constant Ki on D(3) dopamine receptor is more than 10 µM.

The compound `N#C/C(=C\c1ccco1)C(=O)N1CCN(CCc2ccccc2)CC1` [ZINC 29218552, 47] yielded a Ki on D(3) dopamine receptor of 10 µM.

`c1ccc(Cn2cncn2)c(CNCc2ccc(-n3ccnc3)cc2)c1` [ZINC 30900826, 10] showed a Ki on D(3) dopamine receptor of 10 µM.

In the case of `CC1CCN(CCC(=O)N2c3ccccc3C[C@@H]2C)CC1` [ZINC 39217391, 11], the affinity on D(3) dopamine receptor corresponds to a Ki of 9.28 µM. This Ki and that of the compound before are within 1.5-fold of each other.

With `Cc1cccc2nc(C(=O)NCC(c3ccco3)N(C)C)cn12` (configuration not stated) [ZINC 41903371, 52], on D(3) dopamine receptor, the affinity, expressed as Ki, was 10 µM. This Ki and that of the compound before are within 1.5-fold of each other.

Take `C[C@H](C1CC1)N(CCC(=O)N1CCc2ccccc21)C1CC1` [ZINC 42123507, 27]: the Ki at D(3) dopamine receptor was more than 10 µM.

As for `c1ccc(-c2n[nH]cc2CNCc2ccc(Cn3ccnc3)cc2)cc1` [ZINC 42228310, 26], the Ki at D(3) dopamine receptor turned out to be 9.31 µM.

As to `Cc1cccc2nc(C(=O)NCC(C)N(C)C)cn12` (configuration not stated) [ZINC 46272073, 50], the Ki at D(3) dopamine receptor is 10 µM.

`CN(CCCOc1ccccc1)CC(=O)N1CCc2ccccc21` [ZINC 48057418, 45] came in with a Ki on D(3) dopamine receptor of 7.21 µM.

`CN(C)[C@H](CNC(=O)c1cc([N+](=O)[O-])cc([N+](=O)[O-])c1)c1ccco1` [ZINC 49944321, 48] yielded a Ki on D(3) dopamine receptor of 7.77 µM. The Ki values of the last two compounds are within 1.5-fold of each other.

Consider `CN(CCOc1cccc(F)c1)CC(O)c1c(F)cccc1F` (configuration not stated) [ZINC 51423503, 49], for which, at D(3) dopamine receptor, affinity was put at a Ki of 8.74 µM. The Ki values of the last two compounds are within 1.5-fold of each other.
